Reference: US7598234B2, “Steroid derived antibiotics” (Brigham Young University, priority 1998, dated 2009)
In brackets after ≈: the same amount, converted by molar mass.

Legend:
Gram-negative bacteria = test: Sensitization to erythromycin, ester and amide side chain compounds (Table 14); format: cell-based; conditions: in words; compared with Table 14 compounds
Procedure: (§1) Aliquots of 1 mL of the suspension were added to test tubes containing 1 mL TSB and incrementally varied concentrations of cholic acid derivatives and/or erythromycin or novobiocin. In the sensitization experiments, erythromycin or novobiocin were added 15 minutes later than the cholic acid derivatives. The samples were subjected to stationary incubation at 37° C. for 24 hours. Sample turbidity was determined by measuring absorption at 760 nm (HP 8453 UV-Visible Chemstation, Hewlett Packard). Additionally, an alliquot from each of the samples showing no measurable turbidity was subcultured on TSA plates (alliquots were diluted to provide fewer than 300 CFU). Colonies that grew on the subculture after overnight incubation were counted and the number of CFU/mL in the samples were calculated. The calculated values were compared to the number of CFU/mL in the original inoculum.
Ability to permeabilize outer membrane: Compounds 11, 106, and 108-114 (FIG. 1) were tested for antibiotic activity. They were also tested for the ability to permeabilize the outer membrane of Gram-negative bacteria, causing sensitization to hydrophobic antibiotics that cannot cross the outer membrane. The permeabilization of the outer membrane was measured using erythromycin and novobiocin.
Ester and amide side chains: Additional compounds, for example, compounds with amide and ester side chains, were tested.

[1] = tested on: Staphylococcus aureus ATCC 25923; test: MIC and MBC measurement with Staphylococcus aureus ATCC 25923; format: cell-based; conditions: Table 16; S. aureus (ATTC 25923)
Excerpt: (§2) General: Microorganisms. Reference strains were purchased from the American Type Culture Collection (Rockville, Md.) or Bactrol disks from Difeo Laboratories (Detroit, Mich.). The following specific ATCC strains were used: 10798 Escherichia coli, 25922 Escherichia coli, 13883 Klebsiella pneumoniae, 27853 Pseudomonas aeruginosa, 14028 Salmonella typhimurium, 29212 Enterococcus faecalis, 25923 Staphylococcus aureus, 19615 Streptococcus pyogenes, and 90028 Candida albicans. Bacterial strains were maintained on Mueller-Hinton agar plates, and Candida albicans was maintained on Sabouraud Dextrose agar plates.
(§3) Tryptic soy broth (TSB) was made by dissolving 27.5 grams of tryptic soy broth without dextrose (DIFCO Laboratories) in 1 liter of deionized water and sterilizing at 121° C. for 15 minutes. Solid agar (TSA) plates were made by dissolving 6.4 grams of tryptic soy broth and 12 grams of agar (purified grade, Fischer Scientific) in 800 mL of deionized water and sterilizing at 121° C. for 20 minutes. Aliquots (20 mL) of the homogeneous solution were then poured in sterile plastic petri dishes (100×15 mm, Fisher Scientific). Solutions of compounds were made by dissolving the HCl salt of the respective compound into an appropriate amount of deionized and sterilized water followed by microfiltration.
as §1, with “inoculum. […]” for “inoculum.”

E. coli (ATCC 25922) [2] = test: Sensitization to erythromycin, E. coli (ATCC 25922); format: cell-based, Escherichia coli; conditions: Table 16; E. coli
Procedure: FICs can be performed by checkerboard titrations of compounds in one dimension of a microtiter plate, and of antibiotics in the other dimension, for example. The FIC is calculated by looking at the impact of one antibiotic on the MIC of the other and vice versa. […] Preferably, an FIC of less than 0.5 is obtained for synergism. As used herein, FIC can be determined as follows:
as §1
Concentrations of 0.5, 1.0 or 3.0 μg/mL of these antibiotics were used, and the concentrations of the cholic acid derivatives required to inhibit bacterial growth of Gram-negative strains were determined.
(§4) Minimum inhibition concentrations (MIC) and minimum hemolytic concentrations (MHC) were measured as described in Li et al., Antimicrob. Agents. Chemother., 1999, 43, 1347.

[3] = Procedure: as §4
E. coli (ATCC 25922) [4] = test: MIC and MBC measurement with E. coli (ATCC 25922); format: cell-based, Escherichia coli; conditions: Table 16; E. coli (ATTC 25922)
Excerpt: as §2, §3
as §1, with “inoculum. […]” for “inoculum.”

Structure (SMILES) | activity as a permeabilizer (Gram-negative bacteria) | MIC (MIC^a) [1] [µg/mL] | c: concentration required to lower the MIC of erythromycin from 36 to 1 μg/mL (E. coli (ATCC 25922) [2]) [µg/mL] | MHC (minimum hemolytic concentration) [3] [µg/mL] | MIC (MIC^b) (E. coli (ATCC 25922) [4]) [µg/mL]
C[C@H](CCCO)[C@H]1CC[C@H]2[C@@H]3[C@H](N)C[C@@H]4C[C@H](N)CC[C@]4(C)[C@H]3C[C@H](N)[C@]12C [Compound 206] | ineffective as a permeabilizer | – | – | – | –
C[C@H](CCC(=O)O)[C@H]1CC[C@H]2[C@@H]3[C@H](OC(=O)CN)C[C@@H]4C[C@H](OC(=O)CN)CC[C@]4(C)[C@H]3C[C@H](OC(=O)CN)[C@]12C [Compound 327] | – | >100 | >100 | >100 | >100
CCCCCCCCOC(=O)CC[C@@H](C)[C@H]1CC[C@H]2[C@@H]3[C@H](OC(=O)CN)C[C@@H]4C[C@H](OC(=O)CN)CC[C@]4(C)[C@H]3C[C@H](OC(=O)CN)[C@]12C [Compound 341] | – | 1.8 (≈ 2.6 µM) | 0.7 | – | 1.0 (≈ 1.45 µM)
CCCCCCCCOC(=O)CC[C@@H](C)[C@H]1CC[C@H]2[C@@H]3[C@H](OC(=O)CCCN)C[C@@H]4C[C@H](OC(=O)CCCN)CC[C@]4(C)[C@H]3C[C@H](OC(=O)CCCN)[C@]12C [Compound 343] | – | 1.2 (≈ 1.55 µM) | 3.5 | – | 3.5 (≈ 4.51 µM)
